Reference: PMC7529893, “Structural basis for substrate recognition and chemical inhibition of oncogenic MAGE ubiquitin ligases” (Nature Communications, 2020)

target: T1, MAGE-A11:PCF11 interaction (GST-MAGE-A11 and FAM-PCF11_4) (Homo sapiens, UniProt P43364); assay: TR-FRET primary / single point screen at 15 µM; type: binding; conditions: single point TR-FRET screening of 797 quinoline compounds against MAGE-A11:PCF11
T1 construct: GST-MAGE-A11 MHD (human MAGE-A11 MHD amino acid 218-429); made in house; host or cells: E. coli BL21(DE3)
T1 sequence (P43364 218-429): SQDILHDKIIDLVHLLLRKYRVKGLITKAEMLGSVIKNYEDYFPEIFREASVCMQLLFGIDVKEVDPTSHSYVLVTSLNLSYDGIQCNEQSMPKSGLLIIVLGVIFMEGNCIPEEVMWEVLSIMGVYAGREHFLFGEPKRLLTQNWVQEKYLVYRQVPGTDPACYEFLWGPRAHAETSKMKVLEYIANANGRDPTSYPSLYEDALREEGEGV
Method: The TR-FRET assay buffer with a formula of 50 mM Tris pH 7.5, 20 mM MgCl2, 0.1 mg/ml BSA and 1 mM DTT was freshly prepared before each experiment. All TR-FRET assays were performed in black 384-well plates with 20 µl/well assay volume in the TR-FRET assay buffer at room temperature (~25 °C). All peptides or compounds were solubilized in DMSO. To test the competitive activity of peptides or compounds against the interaction between GST-MAGE-A11 MHD and FAM-PCF11_4 peptide, 10 µl/well peptide or compound at specified concentration was dispensed into a black 384-well low volume plate, followed by 5 µl/well FAM-PCF11_4 (800 nM), 5 µl/well Tb-anti-GST (20 nM), and GST-MAGE-A11 MHD (20 nM). The assay components in each well was then mixed by shaking the plate on an IKA MTS 2/4 digital microtiter plate shaker (IKA Works; Wilmington, NC, USA) for 1 min. The plate was further centrifuged in an Eppendorf 5810 centrifuge with an A-4-62 swing-bucket rotor (Eppendorf AG, Hamburg, Germany) at 201 g for 30 s. The plate was then incubated for 90 min with a lid to avoid light exposure to the assay components. After incubation, the fluorescent emission signals at 520 nm and 490 nm channels of individual wells were measured with a PHERAstar FS plate reader (BMG Labtech; Durham, NC, USA) by using a 340 nm excitation filter, 100 µs delay time, and 200 µs integration time. The TR-FRET fluorescence emission ratio (TR-FRET signal) for each well was presented as 10,000 × 520 nm/490 nm, which was used directly for curve fitting, or further converted to %Inhibition based on the respective positive and negative controls. The graphic software GraphPad Prism 4.81 (GraphPad Software; La Jolla, CA, USA) was used to generate curves and derive IC50 values of tested peptides or compounds, if applicable. TR-FRET screen for identifying MAGE-A11 small molecule inhibitors was performed as follows. The primary one-concentration screening and subsequent 10 or 20-concentration dose-response tests were accomplished with an automated High Throughput Screening system (HighRes Biosolutions, Beverly, MA)[30]. In the primary screening, 15 µl/well FAM-PCF11_4 (267 nM) was first dispensed with a Multidrop Combi Reagent Dispenser (Thermo Fisher Scientific, Waltham, MA) to black 384-well low-volume assay plates. The plates were spun down with a Velocity11 VSpin microplate centrifuge (Agilent Technologies, Santa Clara, CA). In total, 30 nl/well of 10 mM compound/DMSO solutions, or DMSO alone, were transferred from compound plates (the St. Jude FDA drug and bioactive library, Drug-like library and Lead-like library) or a control plate to the assay plates with a Pin Tool (V&P Scientific, San Diego, CA). The compounds were arrayed in columns 3–12 and columns 15–24 of compound plates. The controls were arrayed in columns 1, 2, 13, and 14 of a compound plate. In all, 5 µl/well Tb-anti-GST (20 nM) and GST-MAGE-A11 (20 nM) or 5 µl/well Tb-anti-GST (20 nM) alone was then dispensed to selected wells with a Multidrop Combi Reagent Dispenser. The final assay volume was 20 µl/well. […] The final tested compound concentration was 15 µM. The final FAM-PCF11_4 concentration was 200 nM and the final Tb-anti-GST concentration was 5 nM. The final GST-MAGE-A11 concentration was 5 nM except for those selected positive control wells in which GST-MAGE-A11 was not presented. The plates were then shaken with a big bear shaker (Big Bear Automation, Santa Clara, California) and spun down with the Velocity11 VSpin microplate centrifuge for 20 s. The plates were then incubated at room temperature in a Liconic incubator (Liconic US, Woburn, MA) for 90 min. The TR-FRET signals for individual wells were measured with a PHERAstar FS plate reader. The %Inhibition of each tested inhibitor was calculated by using Eq. 1. Those inhibitors with %Inhibition >30% in the primary screening were selected for further dose-response test, along with additional newly synthesized compounds. […]

Going from CCc1ccc(S(=O)(=O)c2cnc3ccccc3c2N2CCN(c3ccccc3OC)CC2)cc1 [SJ000117069] to CCc1ccc(S(=O)(=O)c2cnc3ccccc3c2N2CCN(c3ccccc3F)CC2)cc1 [SJ000117079], the “percent inhibition (TR-FRET)” value falls from -47.4423 to -56.5833.

Compared with COc1ccccc1N1CCN(c2c(S(=O)(=O)c3ccc(Cl)cc3)cnc3ccc(C)cc23)CC1 [SJ000117070], COc1ccc(N2CCN(c3c(S(=O)(=O)c4ccc(Cl)cc4)cnc4ccc(C)cc34)CC2)cc1 [SJ000117075] is higher in “percent inhibition (TR-FRET)” value: -15.3715 for the first, -3.122 for the second.

Going from COc1ccc(N2CCN(c3c(S(=O)(=O)c4ccccc4)cnc4ccc(OC)cc34)CC2)cc1 [SJ000117071] to CCc1ccc(S(=O)(=O)c2cnc3ccccc3c2N2CCN(c3ccc(OC)cc3)CC2)cc1 [SJ000117074], the “percent inhibition (TR-FRET)” value rises from -32.6681 to -11.204.

First: COc1ccc(N2CCN(c3c(S(=O)(=O)c4ccc(C)cc4)cnc4ccc(Cl)cc34)CC2)cc1 [SJ000117072]
Second: COc1ccc2ncc(S(=O)(=O)c3ccc(C)cc3)c(N3CCN(c4ccccc4F)CC3)c2c1 [SJ000117076]
The “percent inhibition (TR-FRET)” value of the first is lower: -5.838 for the first, 6.02 for the second.

Going from COc1ccc(N2CCN(c3c(S(=O)(=O)c4ccc(C)c(C)c4)cnc4ccc(F)cc34)CC2)cc1 [SJ000117073] to COc1ccc2ncc(S(=O)(=O)c3ccc(C)c(C)c3)c(N3CCN(c4ccccc4F)CC3)c2c1 [SJ000117078], the “percent inhibition (TR-FRET)” value rises from -13.2577 to -8.289.

Compared with CCOc1ccc2ncc(S(=O)(=O)c3ccc(C)cc3)c(N3CCN(c4ccccc4F)CC3)c2c1 [SJ000117077], Cc1ccc(S(=O)(=O)c2cnc3ccccc3c2N2CCN(c3ccc(C)cc3C)CC2)cc1 [SJ000117080] is lower in “percent inhibition (TR-FRET)” value: 5.159 for the first, 3.172 for the second.

Compared with Cc1cccc(N2CCN(c3c(S(=O)(=O)c4ccccc4)cnc4ccccc34)CC2)c1C [SJ000117081], COc1ccc2ncc(S(=O)(=O)c3ccccc3)c(N3CCN(c4cccc(C)c4C)CC3)c2c1 [SJ000117082] is lower in “percent inhibition (TR-FRET)” value: -13.1252 for the first, -241.81 for the second.

First: Cc1ccc(C)c(N2CCN(c3c(S(=O)(=O)c4ccccc4)cnc4ccc(F)cc34)CC2)c1 [SJ000117083]
Second: Cc1ccc(S(=O)(=O)c2cnc3ccccc3c2N2CCN(c3cc(C)ccc3C)CC2)cc1 [SJ000117084]
The “percent inhibition (TR-FRET)” value of the first is lower: -15.3776 for the first, 2.443 for the second.

First: COc1ccc2ncc(S(=O)(=O)c3ccc(C)cc3)c(N3CCN(Cc4ccccc4)CC3)c2c1 [SJ000117085]
Second: CCc1ccc(S(=O)(=O)c2cnc3ccccc3c2N2CCN(Cc3ccccc3)CC2)cc1 [SJ000117086]
The “percent inhibition (TR-FRET)” value of the first is lower: -82.2209 for the first, -55.2584 for the second.

Compared with CCOC(=O)c1cnc2ccc(C(=O)OC)cc2c1NCCN1CCOCC1 [SJ000127079], CCOC(=O)c1cnc2c(C(=O)OC)cccc2c1NCCN1CCOCC1 [SJ000184799] is higher in “percent inhibition (TR-FRET)” value: -7.813 for the first, 4.043 for the second.

Going from CCOC(=O)c1cnc2c(C)cc(Cl)cc2c1NCCN1CCOCC1 [SJ000129560] to CCOC(=O)c1cnc2c(C)cc(C)cc2c1NCCN1CCOCC1 [SJ000172983], the “percent inhibition (TR-FRET)” value rises from 4.96 to 8.869.

Compared with CCOC(=O)c1cnc2c(C)c(C)ccc2c1NCCN(C)C [SJ000134078], CCOC(=O)c1cnc2c(Cl)cccc2c1NCCN1CCOCC1 [SJ000163436] is lower in “percent inhibition (TR-FRET)” value: 8.5376 for the first, -6.529 for the second.

First: CCOC(=O)c1cnc2c(Cl)cc(Cl)cc2c1NCCN1CCOCC1 [SJ000175864]
Second: CCOC(=O)c1cnc2ccc(Cl)cc2c1N1CCN(C)CC1 [SJ000187322]
The “percent inhibition (TR-FRET)” value of the first is lower: -13.059 for the first, -0.9277 for the second.

Going from Cc1ccc(S(=O)(=O)N2CCN(c3ccnc4cc(Cl)ccc34)CC2)cc1 [SJ000192519] to O=S(=O)(c1ccc(Br)cc1)N1CCN(c2ccnc3cc(Cl)ccc23)CC1 [SJ000201754], the “percent inhibition (TR-FRET)” value rises from -38.6966 to -16.7513.

First: CC(=O)Nc1ccc(S(=O)(=O)N2CCN(c3ccnc4cc(Cl)ccc34)CC2)cc1 [SJ000193862]
Second: O=S(=O)(c1ccc(F)cc1)N1CCN(c2ccnc3cc(Cl)ccc23)CC1 [SJ000203833]
The “percent inhibition (TR-FRET)” value of the first is higher: -16.1911 for the first, -50.6426 for the second.

Going from COc1ccc(S(=O)(=O)N2CCN(c3ccnc4cc(Cl)ccc34)CC2)cc1 [SJ000199955] to O=S(=O)(c1ccc(Cl)cc1)N1CCN(c2ccnc3cc(Cl)ccc23)CC1 [SJ000204656], the “percent inhibition (TR-FRET)” value falls from -32.0719 to -34.3905.

Compared with C=CCOCC(O)CN1CCN(c2cc(C)nc3ccccc23)CC1 (centres unmarked) [SJ000227652], C#CCOCC(O)CN1CCN(c2cc(C)nc3ccccc23)CC1 (centres unmarked) [SJ000227655] is higher in “percent inhibition (TR-FRET)” value: -0.207 for the first, 6.55 for the second.

Going from Cc1cc(N2CCN(CC(O)CO)CC2)c2ccccc2n1 (centres unmarked) [SJ000227653] to Cc1cc(N2CCN(CC(O)COCC(C)C)CC2)c2ccccc2n1 (centres unmarked) [SJ000227654], the “percent inhibition (TR-FRET)” value rises from -4.954 to -3.251.

For C=CCOCC(O)CN1CCN(c2cc(C(F)(F)F)nc3ccccc23)CC1 (centres unmarked) [SJ000228017], the “percent inhibition (TR-FRET)” value was -2.128.

same assay, conditions: single point TR-FRET screening of quinoline compounds against MAGE-A11:PCF11; 15 µM

Compared with CCOC(=O)c1cnc2ccc(OC)cc2c1NCCCN1CCOCC1 [SJ000127046], CCOC(=O)c1cnc2ccc(Br)cc2c1NCCCN1CCOCC1 [SJ000176507] is lower in “percent inhibition (TR-FRET)” value: 2.945 for the first, -22.0025 for the second.

Compared with CCOC(=O)c1cnc2c(C)c(Cl)ccc2c1NCCCN1CCOCC1 [SJ000129912], CCOC(=O)c1cnc2c(C)cc(Cl)cc2c1NCCCN1CCOCC1 [SJ000174094] is higher in “percent inhibition (TR-FRET)” value: -23.261 for the first, -10.5199 for the second.

Compared with CCOC(=O)c1cnc2c(C(F)(F)F)cccc2c1NCCCN1CCOCC1 [SJ000131358], CCOC(=O)c1cnc2c(OC)cccc2c1NCCCN1CCOCC1 [SJ000180455] is lower in “percent inhibition (TR-FRET)” value: 10.0613 for the first, 3.635 for the second.

Going from CCOC(=O)c1cnc2c(C)cc(C)cc2c1NCCCN1CCOCC1 [SJ000173725] to CCOC(=O)c1cnc2c(Cl)cc(Cl)cc2c1NCCCN1CCOCC1 [SJ000176476], the “percent inhibition (TR-FRET)” value falls from 6.494 to -2.118.

First: CCOC(=O)c1ccc2ncc(C(=O)OCC)c(NCCCN3CCOCC3)c2c1 [SJ000176583]
Second: CCOC(=O)c1cnc2c(CC)cccc2c1NCCCN1CCOCC1 [SJ000185196]
The “percent inhibition (TR-FRET)” value of the first is higher: 11.255 for the first, -4.499 for the second.
